Drawing on patent US20110173718A1, “HERBICIDE TOLERANT PLANTS” (SYNGENTA CROP PROTECTION, INC., priority 2008, published 2011), this text covers pest or weed control for four compounds.

Like-named read-outs stand apart in the source and are kept apart here.

For this assay, the system named is weeds. As to the kind of experiment: Glasshouse weed control, HST inhibitors alone and with A22, pre-emergence. Format: in vivo. The following applies: 336 h, 14 DAT; for pest or weed control at 15.625 g/ha: HST inhibitor rate 15.625 g/ha; for pest or weed control at 62.5 g/ha: HST inhibitor rate 62.5 g/ha; for pest or weed control at 250 g/ha: HST inhibitor rate 250 g/ha. Put shortly:
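Weeds grown in glasshouse trays (24-27 C day, 18-21 C night, ~15 h photoperiod) and track-sprayed in 0.2% X77 at […], pre-emergence or post-emergence at about 7-12 d. HPPD inhibitor A22 applied at 2 g/ha alone or mixed with HST herbicides. Damage scored 0–100% at 14 DAT; synergy calculated by Colby formula.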

Where [1] appears, read: BRAPL, read-out: BRAPL Obs, % control score.
Setting [2] is: PANMI, read-out: PANMI Obs, % control score.
The mark [3] stands for this setting: SIDSP, read-out: SIDSP Obs, % control score.
Setting [4] is: Digitaria sanguinalis, DIGSA, read-out: DIGSA Obs, % control score.
The mark [5] stands for this setting: Echinochloa crus-galli, ECHCG, read-out: ECHCG Obs, % control score.
[6] abbreviates: Setaria faberi, SETFA, read-out: SETFA Obs, % control score.

On to `O=c1c(-c2c(Cl)ccc(Cl)c2Cl)c(O)c2nccnc2n1CC(F)F` [Compound 2.14], for which the pest or weed control at 15.625 g/ha by setting is: under setting [1], 0%; under setting [2], 0%; under setting [3], 0%; under setting [4], 0%; under setting [5], 0%; under setting [6], 0%. Further, the pest or weed control at 62.5 g/ha is 2% under setting [1]; 0% under setting [2]; 0% under setting [3]; 0% under setting [4]; 5% under setting [5]; 2% under setting [6]. In addition, the pest or weed control at 250 g/ha amounted to 20% under setting [1]; 2% under setting [2]; 5% under setting [3]; 5% under setting [4]; 50% under setting [5]; 20% under setting [6].
In the case of `O=c1c(-c2cc(C(F)(F)F)ccc2Cl)c(O)c2nccnc2n1CC(F)F` [Compound 2.9], the pest or weed control at 15.625 g/ha runs as follows: under setting [1], 0%; under setting [2], 0%; under setting [3], 0%; under setting [4], 0%; under setting [5], 0%; under setting [6], 0%. Besides, the pest or weed control at 62.5 g/ha by setting is: under setting [1], 2%; under setting [2], 0%; under setting [3], 0%; under setting [4], 0%; under setting [5], 0%; under setting [6], 0%. Moreover, the pest or weed control at 250 g/ha is, setting by setting: under setting [1], 50%; under setting [2], 60%; under setting [3], 40%; under setting [4], 65%; under setting [5], 60%; under setting [6], 30%.
`O=c1c(-c2c(F)ccc(Br)c2Cl)c(O)c2cccnc2n1CC(F)F` [Compound 2.15]: the pest or weed control at 15.625 g/ha under setting [1] is 0%; the pest or weed control at 15.625 g/ha under setting [2] came out at 0%; the pest or weed control at 15.625 g/ha under setting [3] was determined as 0%; the pest or weed control at 15.625 g/ha under setting [4] is 0%; the pest or weed control at 15.625 g/ha under setting [5] was determined as 0%; the pest or weed control at 15.625 g/ha under setting [6] was found to be 0%. Besides, the pest or weed control at 62.5 g/ha is 0% under setting [1]; 0% under setting [2]; 0% under setting [3]; 0% under setting [4]; 0% under setting [5]; 0% under setting [6]. The pest or weed control at 250 g/ha reads like this: under setting [1], 0%; under setting [2], 0%; under setting [3], 0%; under setting [4], 0%; under setting [5], 0%; under setting [6], 0%.
As to `O=c1c(-c2c(F)ccc(Br)c2Cl)c(O)c2nccnc2n1CC(F)F` [Compound 2.8], the pest or weed control at 15.625 g/ha is 0% under setting [1]; 0% under setting [2]; 0% under setting [3]; 0% under setting [4]; 0% under setting [5]; 0% under setting [6]. In addition, the pest or weed control at 62.5 g/ha by setting is: under setting [1], 1%; under setting [2], 0%; under setting [3], 0%; under setting [4], 0%; under setting [5], 2%; under setting [6], 0%. In addition, the pest or weed control at 250 g/ha is, setting by setting: under setting [1], 15%; under setting [2], 60%; under setting [3], 2%; under setting [4], 30%; under setting [5], 50%; under setting [6], 10%.
